Data from patent publication US20240376121A1, “COMPOUNDS AND USES THEREOF” (Foghorn Therapeutics Inc., priority 2021, published 2024).

Key:
[1] = target: T1, HiBit-BRM fusion protein (Homo sapiens, UniProt P51531); experiment: HiBiT-BRM cell-based degradation assay (Nano-Glo HiBiT Lytic Detection); conditions: stable HeLa cell line expressing HiBiT-BRM, 24 h incubation; for BRM HiBit Degradation Maximum (%): top dose 30 μM; for DC50: read-out: BRM HiBit Degradation IC50
T1 construct: expressed in transfected cells
Method in brief: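 HeLa cells stably expressing HiBiT-BRM were dosed with compounds (10-point 3-fold dilutions, 30 μM final top dose, duplicate) for 24 h. HiBiT signal was read by lytic LgBiT complementation luminescence. Percent degradation was normalised to DMSO (high control) and 2 μM of a reference BRM/BRG1 degrader (low control).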

[2] = target: T2, HiBit-BRG1 fusion protein (Homo sapiens, UniProt P51532); experiment: HiBiT-BRG1 cell-based degradation assay (Nano-Glo HiBiT Lytic Detection); conditions: stable HeLa cell line expressing HiBit-BRG1 and LgBit, 24 h incubation; for Dmax: top dose 30 μM, read-out: BRG1 HiBit Degradation Maximum (%); for DC50: read-out: BRMG1 HiBit Degradation IC50
T2 construct: expressed in transfected cells
Method in brief: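 HeLa cells stably expressing HiBiT-BRG1 and LgBiT treated 24 h with 10-point 3-fold dilutions (top 30 μM, duplicate). Luminescence read after Nano-Glo HiBiT lytic reagent; % degradation relative to DMSO (high control) and 2 μM reference BRM/BRG1 degrader (low control).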

T2 sequence (P51532 whole entry, the tested form may be a part): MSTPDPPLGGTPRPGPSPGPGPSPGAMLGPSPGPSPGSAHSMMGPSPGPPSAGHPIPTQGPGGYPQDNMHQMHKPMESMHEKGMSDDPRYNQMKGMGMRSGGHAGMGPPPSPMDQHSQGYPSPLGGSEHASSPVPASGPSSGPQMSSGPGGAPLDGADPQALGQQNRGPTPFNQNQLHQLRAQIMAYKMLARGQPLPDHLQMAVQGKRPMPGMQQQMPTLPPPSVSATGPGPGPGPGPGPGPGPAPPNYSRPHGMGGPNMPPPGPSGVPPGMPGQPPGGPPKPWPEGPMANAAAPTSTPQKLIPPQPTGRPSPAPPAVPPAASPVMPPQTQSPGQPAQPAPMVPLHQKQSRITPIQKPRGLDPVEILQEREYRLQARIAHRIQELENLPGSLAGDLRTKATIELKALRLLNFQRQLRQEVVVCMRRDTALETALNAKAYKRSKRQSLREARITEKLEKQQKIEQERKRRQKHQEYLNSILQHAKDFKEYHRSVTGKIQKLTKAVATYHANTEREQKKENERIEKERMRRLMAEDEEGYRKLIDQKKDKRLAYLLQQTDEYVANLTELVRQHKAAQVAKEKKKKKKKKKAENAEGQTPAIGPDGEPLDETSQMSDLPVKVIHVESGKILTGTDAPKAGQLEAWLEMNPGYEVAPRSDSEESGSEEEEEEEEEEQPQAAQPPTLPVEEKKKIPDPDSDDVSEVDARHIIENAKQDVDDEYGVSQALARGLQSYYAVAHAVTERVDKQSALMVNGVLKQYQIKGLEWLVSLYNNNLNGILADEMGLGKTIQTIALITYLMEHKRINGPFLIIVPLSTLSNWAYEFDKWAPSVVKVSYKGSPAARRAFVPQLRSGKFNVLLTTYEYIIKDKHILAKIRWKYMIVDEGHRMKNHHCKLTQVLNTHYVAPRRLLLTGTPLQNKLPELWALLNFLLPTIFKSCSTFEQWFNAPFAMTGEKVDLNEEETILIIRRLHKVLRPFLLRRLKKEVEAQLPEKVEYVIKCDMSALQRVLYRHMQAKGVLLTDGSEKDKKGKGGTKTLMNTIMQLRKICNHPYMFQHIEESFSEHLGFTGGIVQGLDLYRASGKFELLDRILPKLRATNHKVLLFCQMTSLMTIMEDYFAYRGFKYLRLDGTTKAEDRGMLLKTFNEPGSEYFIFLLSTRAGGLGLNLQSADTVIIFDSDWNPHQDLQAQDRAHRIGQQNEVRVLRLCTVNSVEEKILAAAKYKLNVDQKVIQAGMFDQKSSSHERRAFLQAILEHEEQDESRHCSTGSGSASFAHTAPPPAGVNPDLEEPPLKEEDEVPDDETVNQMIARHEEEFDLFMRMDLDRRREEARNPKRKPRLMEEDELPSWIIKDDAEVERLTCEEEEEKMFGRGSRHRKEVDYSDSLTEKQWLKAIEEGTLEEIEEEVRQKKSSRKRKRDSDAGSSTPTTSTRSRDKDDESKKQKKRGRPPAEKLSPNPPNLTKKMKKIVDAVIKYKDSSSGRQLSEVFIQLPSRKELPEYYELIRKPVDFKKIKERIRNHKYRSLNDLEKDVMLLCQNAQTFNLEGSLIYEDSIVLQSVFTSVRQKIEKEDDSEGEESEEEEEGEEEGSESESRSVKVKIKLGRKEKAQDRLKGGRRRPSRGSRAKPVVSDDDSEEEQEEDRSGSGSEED
T1 sequence (P51531 whole entry, the tested form may be a part): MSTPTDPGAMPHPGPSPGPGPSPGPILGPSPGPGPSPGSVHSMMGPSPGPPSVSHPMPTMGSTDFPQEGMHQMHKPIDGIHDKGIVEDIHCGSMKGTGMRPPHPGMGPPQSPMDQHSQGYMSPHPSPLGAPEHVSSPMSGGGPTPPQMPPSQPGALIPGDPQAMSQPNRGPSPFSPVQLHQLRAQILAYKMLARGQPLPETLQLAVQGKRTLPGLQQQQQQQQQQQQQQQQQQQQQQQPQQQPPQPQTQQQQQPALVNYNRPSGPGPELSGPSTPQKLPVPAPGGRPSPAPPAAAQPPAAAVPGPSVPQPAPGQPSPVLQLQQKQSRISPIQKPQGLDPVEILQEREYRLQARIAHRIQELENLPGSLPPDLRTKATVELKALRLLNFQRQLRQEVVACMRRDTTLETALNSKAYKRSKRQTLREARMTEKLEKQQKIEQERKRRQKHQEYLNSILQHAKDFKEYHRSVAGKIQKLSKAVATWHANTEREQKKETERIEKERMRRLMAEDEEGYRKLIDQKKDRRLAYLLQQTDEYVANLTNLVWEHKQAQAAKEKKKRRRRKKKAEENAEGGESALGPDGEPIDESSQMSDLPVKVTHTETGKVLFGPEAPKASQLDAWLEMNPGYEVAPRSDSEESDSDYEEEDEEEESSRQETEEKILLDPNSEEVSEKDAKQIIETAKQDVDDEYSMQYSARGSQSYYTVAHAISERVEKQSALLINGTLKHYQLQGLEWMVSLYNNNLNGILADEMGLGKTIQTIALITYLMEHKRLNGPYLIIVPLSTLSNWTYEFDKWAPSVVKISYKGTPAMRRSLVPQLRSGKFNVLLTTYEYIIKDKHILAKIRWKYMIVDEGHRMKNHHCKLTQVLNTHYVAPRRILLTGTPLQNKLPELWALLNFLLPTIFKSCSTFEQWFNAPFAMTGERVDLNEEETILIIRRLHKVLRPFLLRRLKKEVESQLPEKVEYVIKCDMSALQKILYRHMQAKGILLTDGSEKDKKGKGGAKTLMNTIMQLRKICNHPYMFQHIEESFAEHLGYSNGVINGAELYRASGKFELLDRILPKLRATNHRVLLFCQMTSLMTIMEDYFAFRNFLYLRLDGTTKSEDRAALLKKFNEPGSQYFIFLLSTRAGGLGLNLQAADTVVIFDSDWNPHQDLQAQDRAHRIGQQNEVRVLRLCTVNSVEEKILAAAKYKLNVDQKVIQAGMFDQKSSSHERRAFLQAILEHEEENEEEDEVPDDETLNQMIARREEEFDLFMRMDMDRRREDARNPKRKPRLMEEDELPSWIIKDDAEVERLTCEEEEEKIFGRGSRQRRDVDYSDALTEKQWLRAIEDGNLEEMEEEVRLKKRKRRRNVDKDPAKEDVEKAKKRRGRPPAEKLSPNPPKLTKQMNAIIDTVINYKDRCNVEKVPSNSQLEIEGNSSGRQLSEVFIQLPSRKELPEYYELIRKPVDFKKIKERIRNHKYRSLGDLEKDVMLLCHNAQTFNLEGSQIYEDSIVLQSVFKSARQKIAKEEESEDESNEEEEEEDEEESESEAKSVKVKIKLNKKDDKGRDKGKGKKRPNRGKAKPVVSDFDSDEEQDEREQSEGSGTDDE

SMILES	BRM HiBit Degradation Maximum (%) [1]	DC50 [1]	Dmax [2]	DC50 [2]
Cc1ncsc1-c1ccc([C@H](C)NC(=O)[C@@H]2C[C@@H](O)CN2C(=O)[C@@H](c2cc(C34CC(CN5CCC(c6sc7nnc(-c8ccccc8O)cc7c6C)CC5)(C3)C4)no2)C(C)C)cc1 [Compound 72, (2S,4R)-4-hydroxy-1-[(2R)-2-{3-[3-({4-[3-(2-hydroxyphenyl)-5-methylthieno[2,3-c]pyridazin-6-yl]piperidin-1-yl}methyl)bicyclo[1.1.1]pentan-1-yl]-1,2-oxazol-5-yl}-3-methylbutanoyl]-N-[(1S)-1-[4-(4-methyl-1,3-thiazol-5-yl)phenyl]ethyl]pyrrolidine-2-carboxamide]	A (“A” indicates maximum degradation ≥ 75%)	< 10 nM	≥ 75%	≥ 10 nM
Cc1ncsc1-c1ccc([C@H](C)NC(=O)[C@@H]2C[C@@H](O)CN2C(=O)[C@@H](c2cc(OCCN3CCC(O)(c4cc5nnc(-c6ccccc6O)cc5s4)CC3)no2)C(C)C)cc1 [Compound 73, (2S,4R)-4-hydroxy-1-((R)-2-(3-(2-(4-hydroxy-4-(3-(2-hydroxyphenyl)thieno[3,2-c]pyridazin-6-yl)piperidin-1-yl)ethoxy)isoxazol-5-yl)-3-methylbutanoyl)-N-((S)-1-(4-(4-methylthiazol-5-yl)phenyl)ethyl)pyrrolidine-2-carboxamide]	A (“A” indicates maximum degradation ≥ 75%)	≥ 10 nM	< 50%	≥ 1000 nM
Cc1ncsc1-c1ccc([C@H](C)NC(=O)[C@@H]2C[C@@H](O)CN2C(=O)[C@@H](c2cc(OCCN3C[C@H]4C[C@@H](C3)[C@H]4c3cc4cc(-c5ccccc5O)nnc4s3)no2)C(C)C)cc1 [Compound 74, (2S,4R)-4-hydroxy-1-((R)-2-(3-(2-((1R,5S,6S)-6-(3-(2-hydroxyphenyl)thieno[2,3-c]pyridazin-6-yl)-3-azabicyclo[3.1.1]heptan-3-yl)ethoxy)isoxazol-5-yl)-3-methylbutanoyl)-N-((S)-1-(4-(4-methylthiazol-5-yl)phenyl)ethyl)pyrrolidine-2-carboxamide]	C (“C” indicates maximum degradation < 50%)	≥ 1000 nM	< 50%	≥ 1000 nM
Cc1ncsc1-c1ccc(CNC(=O)[C@@H]2C[C@@H](O)CN2C(=O)[C@@H](NC(=O)C2(F)CC2)C(C)(C)C)c(OCC(=O)N2CCC(c3cc4nnc(-c5ccccc5O)cc4s3)CC2)c1 [Compound 75, (2S,4R)-1-((S)-2-(1-fluorocyclopropane-1-carboxamido)-3,3-dimethylbutanoyl)-4-hydroxy-N-(2-(2-(4-(3-(2-hydroxyphenyl)thieno[3,2-c]pyridazin-6-yl)piperidin-1-yl)-2-oxoethoxy)-4-(4-methylthiazol-5-yl)benzyl)pyrrolidine-2-carboxamide]	C (“C” indicates maximum degradation < 50%)	≥ 1000 nM	< 50%	≥ 1000 nM
Cc1ncsc1-c1ccc(CNC(=O)[C@@H]2C[C@@H](O)CN2C(=O)[C@@H](NC(=O)C2(F)CC2)C(C)(C)C)c(OCCCN2CCC(c3cc4nnc(-c5ccccc5O)cc4s3)CC2)c1 [Compound 76, (2S,4R)-1-((S)-2-(1-fluorocyclopropane-1-carboxamido)-3,3-dimethylbutanoyl)-4-hydroxy-N-(2-(3-(4-(3-(2-hydroxyphenyl)thieno[3,2-c]pyridazin-6-yl)piperidin-1-yl)propoxy)-4-(4-methylthiazol-5-yl)benzyl)pyrrolidine-2-carboxamide]	B (“B” indicates maximum degradation ≥ 50%)	≥ 10 nM	< 50%	≥ 100 nM
Cc1ncsc1-c1ccc(CNC(=O)[C@@H]2C[C@@H](O)CN2C(=O)[C@@H](NC(=O)C2(F)CC2)C(C)(C)C)c(OCCN2CCC(c3cc4nnc(-c5ccccc5O)cc4s3)CC2)c1 [Compound 77, (2S,4R)-1-((S)-2-(1-fluorocyclopropane-1-carboxamido)-3,3-dimethylbutanoyl)-4-hydroxy-N-(2-(2-(4-(3-(2-hydroxyphenyl)thieno[3,2-c]pyridazin-6-yl)piperidin-1-yl)ethoxy)-4-(4-methylthiazol-5-yl)benzyl)pyrrolidine-2-carboxamide]	C (“C” indicates maximum degradation < 50%)	≥ 1000 nM	< 50%	≥ 1000 nM
Cc1ncsc1-c1ccc(CNC(=O)[C@@H]2C[C@@H](O)CN2C(=O)[C@@H](NC(=O)CCN2CCC(c3cc4nnc(-c5ccccc5O)cc4s3)CC2)C(C)(C)C)cc1 [Compound 78, (2S,4R)-4-hydroxy-1-((S)-2-(3-(4-(3-(2-hydroxyphenyl)thieno[3,2-c]pyridazin-6-yl)piperidin-1-yl)propanamido)-3,3-dimethylbutanoyl)-N-(4-(4-methylthiazol-5-yl)benzyl)pyrrolidine-2-carboxamide]	B (“B” indicates maximum degradation ≥ 50%)	≥ 100 nM	≥ 75%	≥ 1000 nM
Cc1ncsc1-c1ccc(CNC(=O)[C@@H]2C[C@@H](O)CN2C(=O)[C@@H](NC(=O)CCC(=O)N2CCC(c3cc4nnc(-c5ccccc5O)cc4s3)CC2)C(C)(C)C)cc1 [Compound 79, (2S,4R)-4-hydroxy-1-((S)-2-(4-(4-(3-(2-hydroxyphenyl)thieno[3,2-c]pyridazin-6-yl)piperidin-1-yl)-4-oxobutanamido)-3,3-dimethylbutanoyl)-N-(4-(4-methylthiazol-5-yl)benzyl)pyrrolidine-2-carboxamide]	C (“C” indicates maximum degradation < 50%)	≥ 100 nM	< 50%	≥ 1000 nM
Cc1ncsc1-c1ccc(CNC(=O)[C@@H]2C[C@@H](O)CN2C(=O)[C@@H](NC(=O)CCCC(=O)N2CCC(c3cc4nnc(-c5ccccc5O)cc4s3)CC2)C(C)(C)C)cc1 [Compound 80, (2S,4R)-4-hydroxy-1-((S)-2-(5-(4-(3-(2-hydroxyphenyl)thieno[3,2-c]pyridazin-6-yl)piperidin-1-yl)-5-oxopentanamido)-3,3-dimethylbutanoyl)-N-(4-(4-methylthiazol-5-yl)benzyl)pyrrolidine-2-carboxamide]	B (“B” indicates maximum degradation ≥ 50%)	≥ 100 nM	< 50%	≥ 1000 nM
Cc1ncsc1-c1ccc(CNC(=O)[C@@H]2C[C@@H](O)CN2C(=O)[C@@H](NC(=O)C2(F)CC2)C(C)(C)C)c(OCCCN2CCC(c3sc4nnc(-c5ccccc5O)cc4c3C)CC2)c1 [Compound 81, (2S,4R)-1-((S)-2-(1-fluorocyclopropane-1-carboxamido)-3,3-dimethylbutanoyl)-4-hydroxy-N-(2-(3-(4-(3-(2-hydroxyphenyl)-5-methylthieno[2,3-c]pyridazin-6-yl)piperidin-1-yl)propoxy)-4-(4-methylthiazol-5-yl)benzyl)pyrrolidine-2-carboxamide]	B (“B” indicates maximum degradation ≥ 50%)	≥ 10 nM	< 50%	≥ 10 nM
Cc1ncsc1-c1ccc(CNC(=O)[C@@H]2C[C@@H](O)CN2C(=O)[C@@H](NC(=O)C2(F)CC2)C(C)(C)C)c(OCC(=O)N2CCC(c3sc4nnc(-c5ccccc5O)cc4c3C)CC2)c1 [Compound 82, (2S,4R)-1-((S)-2-(1-fluorocyclopropane-1-carboxamido)-3,3-dimethylbutanoyl)-4-hydroxy-N-(2-(2-(4-(3-(2-hydroxyphenyl)-5-methylthieno[2,3-c]pyridazin-6-yl)piperidin-1-yl)-2-oxoethoxy)-4-(4-methylthiazol-5-yl)benzyl)pyrrolidine-2-carboxamide]	C (“C” indicates maximum degradation < 50%)	≥ 1000 nM	< 50%	≥ 1000 nM
Cc1ncsc1-c1ccc(CNC(=O)[C@@H]2C[C@@H](O)CN2C(=O)[C@@H](NC(=O)C2(F)CC2)C(C)(C)C)c(OCCN2CCC(c3sc4nnc(-c5ccccc5O)cc4c3C)CC2)c1 [Compound 83, (2S,4R)-1-((S)-2-(1-fluorocyclopropane-1-carboxamido)-3,3-dimethylbutanoyl)-4-hydroxy-N-(2-(2-(4-(3-(2-hydroxyphenyl)-5-methylthieno[2,3-c]pyridazin-6-yl)piperidin-1-yl)ethoxy)-4-(4-methylthiazol-5-yl)benzyl)pyrrolidine-2-carboxamide]	C (“C” indicates maximum degradation < 50%)	≥ 1000 nM	< 50%	≥ 1000 nM
Cc1ncsc1-c1ccc(CNC(=O)[C@@H]2C[C@@H](O)CN2C(=O)[C@@H](NC(=O)CCCCC(=O)N2CCC(c3cc4nnc(-c5ccccc5O)cc4s3)CC2)C(C)(C)C)cc1 [Compound 84, (2S,4R)-4-hydroxy-1-((S)-2-(6-(4-(3-(2-hydroxyphenyl)thieno[3,2-c]pyridazin-6-yl)piperidin-1-yl)-6-oxohexanamido)-3,3-dimethylbutanoyl)-N-(4-(4-methylthiazol-5-yl)benzyl)pyrrolidine-2-carboxamide]	C (“C” indicates maximum degradation < 50%)	≥ 100 nM	< 50%	≥ 1000 nM
